Source: patent US9591867B2, “Compositions of abscisic acid for animal health” (Valent BioSciences Corporation, priority 2010, dated 2017)

Experiments:
[1] = Fetal data at scheduled necropsy (mg/kg/day dose groups); type: in vivo
Method: (§1) Tests were conducted with (S)-(+)-abscisic acid in accordance with standard guidelines and procedures as evidenced by EPA Subchronic Toxicity Test Guidelines: 870.3050—Repeated Dose 28-Day Oral Toxicity Study in Rodents (July 2000); 870.3100—90-Day Oral Toxicity in Rodents (August 1998); 870.3650—Combined Repeated Dose Toxicity Study with the Reproduction/Developmental Toxicity Screening Test (July 2000); and 870.3200—21/28-Day Dermal Toxicity (August 1998), as well as Organization for Economic Co-operation and Development (OECD) Guidelines for the Testing of Chemicals including: Test No. 407: Repeated Dose 28-day Oral Toxicity Study in Rodents; Test No. 408: Repeated Dose 90-Day Oral Toxicity Study in Rodents; Test No. 416: Two-Generation Reproduction Toxicity; and Test No. 410: Repeated Dose Dermal Toxicity: 21/28-day Study.

[2] = tested on: rats; experiment: Two generation reproduction toxicity study, S-ABA continuously in the diet; type: in vivo; conditions: for Mean Live Offspring Born: per litter; for SPLEEN WEIGHT, % DIFFERENCE: MALES
Method: as §1
This study was conducted to determine the potential adverse effects of the test substance on reproduction in a 2-generation study. This included determining the effects of the test substance on male and female reproductive processes, including gonadal function, estrous cyclicity, mating behavior, conception, gestation, parturition, lactation, weaning, and on growth and development of the offspring. A minimum of 1 litter was produced in each generation.
Three groups of male and female were offered ABA, continuously in the diet for at least 70 consecutive days prior to mating. Target tests substance concentrations were 10,000, 15,000, and 20,000 ppm for the F0 and F1 generations. A concurrent control group of 30 rats/sex was offered the basal diet continuously throughout the study. F0 animals were approximately 7 weeks of age at the initiation of test diet administration. The test diet was administered to the offspring selected to become the F1 generation following weaning. The F0 and F1 males continued to receive the test substance throughout mating and continuing through the day prior to euthanasia. The F0 and F1 females continued to receive the test substance throughout mating, gestation, and lactation, and through the day of euthanasia. For both generations (F1 and F2), 8 pups per litter (4 per sex, when possible) were selected to reduce the variability among the litters. Offspring (30/sex/group, if possible) from the pairing of the F0 animals were selected to constitute the F1 generation. F0 males and females were exposed for 127-130 consecutive days and F1 males and females were exposed for 178-186 consecutive days.
All animals were observed twice daily for appearance and behavior. Clinical observations, body weights, and food consumption were recorded at appropriate intervals for males throughout the study and for females prior to mating and during gestation and lactation. All F0 and F1 females were allowed to deliver and rear their pups until weaning on lactation day 21. Clinical observations, body weights, and sexes for F1 and F2 pups were recorded at appropriate intervals. Nonselected F1 pups and all surviving F2 pups were necropsied. Selected organs were weighed from 1 pup/sex/litter from F1 and F2 pups that wee necropsied. Each surviving F0 and F1 parental animal received a complete detailed gross necropsy following the completion of weaning of the F1 and F2 pups, respectively; selected organs were weighed. Spermatogenic endpoints were recorded for all F0 and F1 males, and ovarian primordial follicle counts were recorded for all F0 and F1 females in the control and high-exposure groups and all F0 and F1 females suspected of reduced fertility. Designated tissues from all F0 and F1 parental animals were examined microscopically.

[3] = 10,000 ppm in diet, rat offspring
[4] = 20,000 ppm in diet, rat offspring

CC1=CC(=O)CC(C)(C)[C@@]1(O)/C=C/C(C)=C\C(=O)O [S-ABA, (S)-(+)-abscisic acid]
fetus numbers at necropsy (in words) ([1]; conclusion from Table 5): increase | FETAL DATA AT SCHEDULED NECROPSY, SEX FEMALE, MEAN ([1]; group 2, 500 MG/KG/DAY): 7.2 | FETAL DATA AT SCHEDULED NECROPSY, SEX FEMALE, N (number of fetuses) ([1]; group 2, 500 MG/KG/DAY): 181 | FETAL DATA AT SCHEDULED NECROPSY, SEX MALE, MEAN ([1]; group 2, 500 MG/KG/DAY): 7.5 | FETAL DATA AT SCHEDULED NECROPSY, SEX MALE, N (number of fetuses) ([1]; group 2, 500 MG/KG/DAY): 187 | FETAL DATA AT SCHEDULED NECROPSY, VIABLE FETUSES, MEAN ([1]; group 2, 500 MG/KG/DAY): 14.7 | FETAL DATA AT SCHEDULED NECROPSY, SEX FEMALE, MEAN ([1]; group 3, 750 MG/KG/DAY): 6.6 | FETAL DATA AT SCHEDULED NECROPSY, SEX FEMALE, N (number of fetuses) ([1]; group 3, 750 MG/KG/DAY): 166 | FETAL DATA AT SCHEDULED NECROPSY, SEX MALE, MEAN ([1]; group 3, 750 MG/KG/DAY): 7.5 | FETAL DATA AT SCHEDULED NECROPSY, SEX MALE, N (number of fetuses) ([1]; group 3, 750 MG/KG/DAY): 188 | FETAL DATA AT SCHEDULED NECROPSY, VIABLE FETUSES, MEAN ([1]; group 3, 750 MG/KG/DAY): 14.2 | FETAL DATA AT SCHEDULED NECROPSY, SEX FEMALE, MEAN ([1]; group 4, 1,000 MG/KG/DAY): 8.3 | FETAL DATA AT SCHEDULED NECROPSY, SEX FEMALE, N (number of fetuses) ([1]; group 4, 1,000 MG/KG/DAY): 208 | FETAL DATA AT SCHEDULED NECROPSY, SEX MALE, MEAN ([1]; group 4, 1,000 MG/KG/DAY): 6.8 | FETAL DATA AT SCHEDULED NECROPSY, SEX MALE, N (number of fetuses) ([1]; group 4, 1,000 MG/KG/DAY): 170 | FETAL DATA AT SCHEDULED NECROPSY, VIABLE FETUSES, MEAN ([1]; group 4, 1,000 MG/KG/DAY): 15.1 | Offspring FOUND DEAD ([2]; 10,000 ppm in diet): 4 | OFFSPRING WEIGHT, MEAN ([2]; 10,000 ppm in diet, FEMALE, postnatal day 1): 6.6 grams | OFFSPRING WEIGHT, MEAN ([2]; 10,000 ppm in diet, FEMALE, postnatal day 4): 9.1 grams | OFFSPRING WEIGHT, MEAN ([2]; 10,000 ppm in diet, MALE, postnatal day 1): 7.1 grams | OFFSPRING WEIGHT, MEAN ([2]; 10,000 ppm in diet, MALE, postnatal day 4): 9.7 grams | Mean Live Offspring Born ([2]; 10,000 ppm in diet): 12.3 | POSTNATAL SURVIVAL, POSTNATAL DAY 0-1, MEAN [2, 3]: 100.0 % PER LITTER | POSTNATAL SURVIVAL, POSTNATAL DAY 7-14, MEAN [2, 3]: 100.0 % PER LITTER | POSTNATAL SURVIVAL, POSTNATAL DAY 14-21, MEAN [2, 3]: 100.0 % PER LITTER | Offspring FOUND DEAD ([2]; 15,000 ppm in diet): 15 | OFFSPRING WEIGHT, MEAN ([2]; 15,000 ppm in diet, FEMALE, postnatal day 1): 6.6 grams | OFFSPRING WEIGHT, MEAN ([2]; 15,000 ppm in diet, FEMALE, postnatal day 4): 8.8 grams | OFFSPRING WEIGHT, MEAN ([2]; 15,000 ppm in diet, FEMALE, postnatal day 7): 14.0 grams | OFFSPRING WEIGHT, MEAN ([2]; 15,000 ppm in diet, MALE, postnatal day 1): 6.9 grams | OFFSPRING WEIGHT, MEAN ([2]; 15,000 ppm in diet, MALE, postnatal day 4): 9.3 grams | Mean Live Offspring Born ([2]; 15,000 ppm in diet): 13.1 | POSTNATAL SURVIVAL, POSTNATAL DAY 14-21, MEAN ([2]; 15,000 ppm in diet, rat offspring): 100.0 % PER LITTER | Offspring FOUND DEAD ([2]; 20,000 ppm in diet): 11 | OFFSPRING WEIGHT, MEAN ([2]; 20,000 ppm in diet, FEMALE, postnatal day 1): 6.6 grams | OFFSPRING WEIGHT, MEAN ([2]; 20,000 ppm in diet, FEMALE, postnatal day 4): 8.8 grams | OFFSPRING WEIGHT, MEAN ([2]; 20,000 ppm in diet, MALE, postnatal day 1): 7.0 grams | OFFSPRING WEIGHT, MEAN ([2]; 20,000 ppm in diet, MALE, postnatal day 4): 9.3 grams | Mean Live Offspring Born ([2]; 20,000 ppm in diet): 12.3 | POSTNATAL SURVIVAL, POSTNATAL DAY 4 (POST-SELECT)-21, MEAN [2, 4]: 98.0 % PER LITTER | POSTNATAL SURVIVAL, POSTNATAL DAY 14-21, MEAN [2, 4]: 100.0 % PER LITTER | SPLEEN WEIGHT, % DIFFERENCE ([2]; 10,000 PPM vs 0 PPM): −2.0% | SPLEEN WEIGHT, % DIFFERENCE ([2]; 15,000 PPM vs 0 PPM): −3.0% | SPLEEN WEIGHT, % DIFFERENCE ([2]; 20,000 PPM vs 0 PPM): −8.9% | offspring mortality (in words) ([2]; conclusion from Table 3): decreases | number of live offspring per litter (in words) ([2]; conclusion from Table 4): increases | follicle size (in words) ([2]; conclusion from Table 6): increase | postnatal offspring survival rates (in words) ([2]; rats, conclusion from Table 1): increases | offspring weight gain (in words) ([2]; rats, conclusion from Table 2): increases | spleen weight (in words) ([2]; rats, males and second generation pups): spleen weight reduction
